Data published in patent US6511673B1, “Microbicidal composition” (Rohm and Haas Company, priority 2000, dated 2003).
Where two headings read alike, the source gives them in different places.

Experiments:
Type in all cases: cell-based
[1] = system: Aspergillus niger (ATCC #16404); assay: MIC synergy assay in TSB, Test Medium Condition 1 (two-fold serial dilution); conditions: ATCC16404, 168 h
Method: (§1) Synergism was determined by an industrially accepted method described by Kull, F. C.; Eisman, P. C.; Sylwestrowicz, H. D. and Mayer, R. L., in Applied Microbiology 9:538-541 (1961), using the ratio determined by the formula:
(§2) Qa/QA+Qb/QB=Synergy Index (“SI”)
(§3) When the sum of Qa/QA and Qb/QB is greater than one, antagonism is indicated. […] The lower the SI, the greater the synergy shown by that particular mixture. The minimum inhibitory concentration (MIC) of a microbicide is the lowest concentration tested under a specific set of conditions that prevents the growth of added microorganisms.
Synergism of combinations of microbicides was determined using standard MIC assays in trypticase soy broth medium (“TSB” medium). In this method, a range of concentrations was tested by preparing two-fold serial dilutions of the compound tested in 96-well microtiter plates. All liquid media transfers were performed with calibrated single or multichannel digital pipettors. Stock solutions of the microbicides were prepared in appropriate solvents and added to the TSB medium. All subsequent dilutions in plates were made using an automated liquid handling system. Final concentrations of microbicides were obtained by making two-fold serial dilutions in two directions in the microtiter plate. […]

[2] = system: Aspergillus niger; assay: High resolution MIC synergy assay in TSB, Test Medium Condition 2 (ten-fold serial dilution)
Method: as §1, §2, §3
(§4) Synergism of combinations of microbicides was determined using standard MIC assays in trypticase soy broth medium (“TSB” medium). In this method, a range of concentrations was tested by preparing two-fold serial dilutions of the compound tested in 96-well microtiter plates. All liquid media transfers were performed with calibrated single or multichannel digital pipettors. Stock solutions of the microbicides were prepared in appropriate solvents and added to the TSB medium. All subsequent dilutions in plates were made using an automated liquid handling system. Final concentrations of microbicides were obtained by making two-fold serial dilutions in two directions in the microtiter plate. […] A cell suspension of either Aspergillus niger (A. niger, ATCC #16404) or Candida albicans (C. albicans, ATCC #10231), adjusted to provide 1×10^5 cells per mL in each well, was added to the microtiter plates.
(§5) In a manner similar to that described above for Test Medium Condition 1, the synergism of combinations of microbicides determined in TSB by conducting high resolution MIC assays in the presence of various concentrations of MI. High resolution MICs were determined by adding varying amounts of microbicide to one column of a microtitre plate and doing subsequent […] dilutions using an automated liquid handling system to obtain a series of endpoints ranging from 2 ppm to 10,000 ppm active ingredient.

[3] = system: Candida albicans; assay: as above
Method: as §1, §2, §3, §4, §5

[4] = 72 h, read-out: QA, MIC of Compound A acting alone

Cn1sccc1=O [MI, 2-methyl-3-isothiazolone]
MIC ([1]; read-out: QA, MIC of Compound A acting alone): 250 µg/mL | MIC [2, 4]: 150 µg/mL | MIC [3, 4]: 100 µg/mL

CCCOC(=O)c1ccc(O)cc1 [PP, propyl para-hydroxybenzoate]
MIC ([1]; A. niger, TSB, two-fold serial dilution, 25° C. one week, read-out: QB, MIC of Compound B acting alone): 594 µg/mL | MIC ([2]; A. niger, TSB, high resolution MIC, 25° C. 72 hours, read-out: QB, MIC of Compound B acting alone): 200 µg/mL | MIC ([3]; C. albicans, TSB, high resolution MIC, 25° C. 72 hours, read-out: QB, MIC of Compound B acting alone): 300 µg/mL
